Holding throughout (test): growth of human tumour cells (NCI), 48 h
Assay [1] deals with HCT-15.
The test system of assay [2] is SNB-19.
Assay [3] relates to MDA-MB-435.
Assay [4] has as its system LOX IMVI.
Assay [5] deals with TK-10.
The test system of assay [6] is HCC 2998.
The test system of assay [7] is NCI/ADR-RES.
In assay [8] the test system is HCT-116.
Assay [9] relates to SK-MEL-5.
The test system of assay [10] is NCI-H522.
Assay [11] relates to SF-268.
Assay [12] concerns HOP-62.
The subject of assay [13] is RPMI-8226.
In assay [14] the test system is SK-OV-3.
The test system of assay [15] is HT-29.
The test system of assay [16] is UO-31.
For assay [17], the system named is U-251.
Assay [18] concerns T47D.
In assay [19] the test system is SK-MEL-2.
Assay [20] concerns NCI-H460.

The structures appear in SMILES notation.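 Method: 48-hour compound exposure of cells in 96-well plates, five concentrations, linear interpolation of endpoints. Here, GI50 denotes the concentration required for 50% inhibition of growth.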 Activity calls are given as the source filed them. Cut-off read from the data, not from the text of the source: active = GI50 up to about 1.1 µM and inactive = higher.

Take `CN1CN(c2ccccc2)C2(CCN(Cc3csc4ccccc34)CC2)C1=O`: the GI50 was 14.5 µM in assay [1]; 38.4 µM (inactive) in assay [2]; 14.3 µM (inactive) in [3]; 11.8 µM (inactive) in [4]; 12.9 µM (inactive) in [5]; 13.4 µM (inactive) in assay [6]. For the same molecule, the GI50 in assay [7] was 8.97 µM (inactive); in assay [8], 5.35 µM (inactive); in [9], 7.78 µM (inactive); in [10], 9.23 µM (inactive); in assay [11], 22.3 µM (inactive); in assay [12] it was 19.6 µM (inactive). Besides, the GI50 is 2.16 µM (inactive) in assay [13]; 38.2 µM (inactive) in assay [14]; 4.83 µM (inactive) in assay [15]; 3.71 µM (inactive) in assay [16]; 8.55 µM (inactive) in assay [17]; 5.11 µM (inactive) in assay [18].
As to `Nc1nc(O)c2c(n1)NCN(CCCN1CCOCC1)C2`, the GI50 in [1] was above 100 µM; in assay [19], > 100 µM (inactive); in assay [2] it was > 100 µM (inactive); in assay [3], > 100 µM (inactive); in [20] it was > 100 µM (inactive); in assay [4] it was > 100 µM (inactive). In addition, the GI50 in assay [5], in assay [6], in [7], in assay [8], in assay [9] and in assay [10] was > 100 µM (inactive) in each case. Moreover, the GI50 in assay [11], in assay [12], in [13], in assay [15], in assay [16] and in assay [17] was > 100 µM (inactive) each time. Moreover, the GI50 in assay [18] is > 100 µM (inactive).
In the case of `CCOC(=O)C(CO)c1nc2c([nH]c1=O)c(=O)n(C)c(=O)n2C` (configuration not stated), the GI50 in assay [1] is above 100 µM; in assay [19], > 100 µM (inactive); in assay [2], > 100 µM (inactive); in [3], > 100 µM (inactive); in assay [20], > 100 µM (inactive); in assay [4] it was > 100 µM (inactive). Moreover, the GI50 is > 100 µM (inactive) in assay [5]; > 100 µM (inactive) in assay [6]; > 100 µM (inactive) in [7]; > 100 µM (inactive) in assay [8]; 0.579 µM (active) in assay [9]; > 100 µM (inactive) in assay [10]. For the same molecule, the GI50 in assay [11], in [12], in assay [13], in [15], in [16] and in assay [17] was > 100 µM (inactive) throughout. For the same molecule, in assay [18], the GI50 is 13.7 µM (inactive).
As to `CC(=O)OC1CCN(C(=O)c2ccccc2)CC1CC1(c2cc3ccccc3[nH]2)OCCO1` (configuration not stated), the GI50 in [1] was 48.3 µM; in assay [19] it was > 100 µM (inactive); in assay [2], > 100 µM (inactive); in [3], 42.8 µM (inactive); in assay [4], 83.2 µM (inactive); in [5] it was 53.2 µM (inactive). For the same molecule, the GI50 in assay [6] was 47.3 µM (inactive); in assay [7], 51.6 µM (inactive); in assay [8], 72.6 µM (inactive); in assay [9], 44 µM (inactive); in assay [10], 78.9 µM (inactive); in [12], > 100 µM (inactive). Moreover, the GI50 in assay [13] is 22.3 µM (inactive); in assay [14], > 100 µM (inactive); in assay [15], > 100 µM (inactive); in assay [16] it was 29 µM (inactive); in assay [17] it was 77.4 µM (inactive); in [18] it was 34 µM (inactive).
For the molecule `O=C(c1cc2ccccc2cc1O)N1CCCCC1`, the GI50 is 35.8 µM in [1]; 17.3 µM (inactive) in [19]; 28.5 µM (inactive) in assay [2]; 33.3 µM (inactive) in assay [3]; 27.7 µM (inactive) in assay [20]; 55.1 µM (inactive) in [4]. Besides, the GI50 in [5] is > 100 µM (inactive); in assay [6] it was 21.2 µM (inactive); in assay [7], 23.8 µM (inactive); in assay [8], 39.6 µM (inactive); in [9], 20 µM (inactive); in assay [11] it was 36.1 µM (inactive). In addition, the GI50 in assay [12] is 27.4 µM (inactive); in [13], 17.6 µM (inactive); in assay [14] it was 42.2 µM (inactive); in assay [15], 25.6 µM (inactive); in assay [16], 40.5 µM (inactive); in [17], 52.4 µM (inactive). Further, the GI50 in assay [18] is 37.6 µM (inactive).
As for `COc1c(CC=C(C)C)c(O)c(C(CC(C)C)c2c(O)c3c(c(C(C)=O)c2O)OC(C(C)(C)O)C3)c(O)c1C(C)=O` (configuration not stated), the GI50 in assay [1] was 3.64 µM; in assay [19], 4.15 µM (inactive); in assay [2], 5.09 µM (inactive); in [3], 4.63 µM (inactive); in assay [4] it was 4.78 µM (inactive); in assay [6] it was 3.63 µM (inactive). The GI50 is 3.44 µM (inactive) in assay [7]; 3.64 µM (inactive) in [8]; 2.22 µM (inactive) in [9]; 3.42 µM (inactive) in assay [10]; 4.53 µM (inactive) in assay [11]; 5.2 µM (inactive) in assay [12]. The GI50 was 0.968 µM (active) in assay [13]; 5.46 µM (inactive) in assay [14]; 4.86 µM (inactive) in assay [15]; 4.32 µM (inactive) in assay [16]; 3.46 µM (inactive) in assay [18].
`Cc1cn(C2CC(O)C(CO[Si](C)(C)C(C)(C)C)OC2OC(C)C)c(=O)[nH]c1=O` (configuration not stated): the GI50 in [1] is 58.5 µM; in assay [19] it was 36 µM (inactive); in assay [2] it was 74.8 µM (inactive); in assay [3] it was 60 µM (inactive); in assay [20] it was 31.6 µM (inactive); in assay [4] it was 18.5 µM (inactive). In addition, the GI50 is 39.5 µM (inactive) in assay [5]; 24.5 µM (inactive) in assay [6]; 43.1 µM (inactive) in assay [7]; 16.5 µM (inactive) in assay [8]; 32.7 µM (inactive) in [9]; 30.2 µM (inactive) in assay [10]. The GI50 in assay [11] was 51.3 µM (inactive); in [13], 37.7 µM (inactive); in assay [15], 20 µM (inactive); in [16], 44.8 µM (inactive); in [17], 39.3 µM (inactive); in assay [18] it was 72.3 µM (inactive).
With `Cc1cc(S(=O)(=O)NC(=C(C#N)C#N)[n+]2ccc(N(C)C)cc2)c([S-])cc1Cl`, the GI50 in assay [1] was above 100 µM; in assay [19] it was > 100 µM (inactive); in assay [2], > 100 µM (inactive); in assay [3], > 100 µM (inactive); in [20], > 100 µM (inactive); in assay [5], > 100 µM (inactive). In addition, the GI50 was > 100 µM (inactive) in assay [6]; > 100 µM (inactive) in assay [7]; > 100 µM (inactive) in assay [8]; > 100 µM (inactive) in assay [9]; 42.3 µM (inactive) in assay [10]; > 100 µM (inactive) in assay [11]. The GI50 in [12], in assay [13], in [14], in [15], in assay [16] and in assay [17] was > 100 µM (inactive) each time. In addition, in [18], the GI50 is > 100 µM (inactive).
For the molecule `C=C1C[C@@H]2O[C@H]3[C@H]4[C@@H](C[C@@H](C)[C@@H](OC(C)=O)[C@H]42)[C@@H](C)CO[C@@]3(C)[C@H](OC(=O)CCCCCCC)CC1=O`, the GI50 in [1] was 14.1 µM; in [19] it was 19.2 µM (inactive); in [2] it was 26.5 µM (inactive); in assay [3], 16.5 µM (inactive); in [20] it was 11.9 µM (inactive); in assay [4], 16.5 µM (inactive). The GI50 was 17.1 µM (inactive) in assay [5]; 17 µM (inactive) in [6]; 17.9 µM (inactive) in [7]; 15.1 µM (inactive) in [8]; 15 µM (inactive) in [9]; 19.6 µM (inactive) in [10]. Besides, the GI50 was 18.8 µM (inactive) in assay [11]; 16 µM (inactive) in assay [12]; 2.64 µM (inactive) in assay [13]; 20.9 µM (inactive) in assay [15]; 15.6 µM (inactive) in assay [16]; 16.8 µM (inactive) in assay [17]. Besides, in assay [18], the GI50 was 15.4 µM (inactive).
With `COc1ccc(CCNC(=O)Cc2ccccc2CCO)cc1OC`, the GI50 in assay [1] is 14.9 µM; in assay [19], > 100 µM (inactive); in assay [2], 27.4 µM (inactive); in [3], > 100 µM (inactive); in assay [20], > 100 µM (inactive); in [5], > 100 µM (inactive). The GI50 in assay [6], in assay [7], in [8], in assay [9], in assay [10] and in assay [11] was > 100 µM (inactive) throughout. Further, the GI50 in [12], in assay [13], in [14], in assay [15], in assay [16] and in assay [17] was > 100 µM (inactive) throughout. Moreover, the GI50 in [18] is > 100 µM (inactive).
Turning to `Cc1cc2c(cc1C)OC(=O)CC2`, the GI50 in [19], in [3], in assay [20], in assay [4], in [5] and in assay [6] was > 100 µM (inactive) each time. The GI50 in assay [7], in [8], in assay [9], in assay [10], in assay [11] and in assay [12] was > 100 µM (inactive) in each case. The GI50 in assay [13], in [15], in assay [16], in [17] and in assay [18] was > 100 µM (inactive) throughout.

The record behind these values is ChEMBL document CHEMBL1201862, “PubChem BioAssay data set” (2004).
